Results as given in patent US5459256A, “Lipophilic, aminohydrolase-activated prodrugs” (priority 1991, dated 1995).

Key:
[1] = test system: HIV-1/IIIB (CD4^+ ATH8 cells); assay: HIV cytopathic effect inhibition assay in ATH8 cells (% protection); type: cell-based; details: ATH8 cells
Procedure: (§1) HIV Cytopathic Effect Inhibition Assay.
(§2) The HIV cytopathic effect inhibition assay was performed as previously described. (Mitsuya, H. & Broder, S. Proc. Nat. Acad. Sci. USA 1986, 83, 1911) Briefly, 200,000 target CD4^+ ATH8 cells were exposed to cell-free HIV-1/IIIB at a dose of 43 (or 1087 for compound 1g) TCID50 (50% tissue culture infectious dose) for 1 h, resuspended in 2 ml of fresh culture media containing interleukin 2, and cultured at 37° C. with or without test compounds in 5% CO2 -containing humidified air. On day 8 in culture, the viable cells were counted by using the dye exclusion method. All compounds, including inactives, were evaluated a minimum of two times in separate experiments. Data reported in Table II are from representative tests. The % protection against the virus was determined by the following formula: 100 times [(the number of viable cells exposed to HIV-1 and cultured in the presence of the compound minus the number of viable cells exposed to HIV-1 and cultured in the absence of compound) divided by (the number of viable cells cultured alone minus the number of viable cells exposed to HIV-1 and cultured in the absence of the compound)]. The % toxicity of a compound on the target cells was determined by the following formula: 100 times [1 minus (the number of total viable cells cultured in the presence of the compound divided by the number of total viable cells cultured alone)]. Calculated percentages equal to or less than zero are expressed as 0%.
^a ATH8 cells were exposed to HIV1/IIIB per cell for 1 hr and
cultured in the presence of various concentrations of each compound. On
day 8, the total viable cells were counted. Orders of numbers in the
column for concentrations correspond to the orders of numbers in other

[2] = test system: CD4^+ ATH8 cells; assay: Toxicity on ATH8 target cells (% toxicity, dye exclusion); type: cell-based
Procedure: as §1
as §2, with “(Mitsuya, H. & Broder, S. Proc. Nat. Acad. Sci. USA 1986, 83, 1911) Briefly, 200,000 target CD4^+ ATH8 cells were exposed to cell-free HIV-1/IIIB at a dose of 43 (or 1087 for compound 1g) TCID50 (50% tissue culture infectious dose) for 1 h, resuspended in 2 ml of fresh culture media containing interleukin 2, and cultured at 37° C. with or without test compounds in 5% CO2 -containing humidified air.” left out

[3] = test system: ADA; details: vs ddA, determined previously, slightly different conditions; cited from earlier work
[4] = biological target: T1, adenosine deaminase (adenosine aminohydrolase, EC 3.5.4.4) (Bos taurus, UniProt P56658); assay: Enzymatic deamination by adenosine deaminase (HPLC); details: for half-life at 50 µM: bovine, adenosine deaminase
T1 sequence (P56658 1-363): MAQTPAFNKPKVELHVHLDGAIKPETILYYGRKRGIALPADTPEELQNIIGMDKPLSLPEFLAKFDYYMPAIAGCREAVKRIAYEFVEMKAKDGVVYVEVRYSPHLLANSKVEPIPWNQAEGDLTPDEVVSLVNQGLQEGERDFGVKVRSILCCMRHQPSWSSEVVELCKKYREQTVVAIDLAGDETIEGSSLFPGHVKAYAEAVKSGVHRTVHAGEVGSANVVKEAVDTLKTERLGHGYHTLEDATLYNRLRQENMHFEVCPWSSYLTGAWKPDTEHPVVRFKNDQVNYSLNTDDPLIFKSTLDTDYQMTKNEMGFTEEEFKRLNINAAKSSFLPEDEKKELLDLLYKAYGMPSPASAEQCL
Procedure: FIG. 1. Deamination of dideoxyadenosine analogues by adenosine deaminase. Hydrolysis kinetics and 2'-F-dd-ara-I formation during the incubation of 50 μM N^6 -CH3 -2'-F-dd-ara-A (1f) with 0.7 units/mL of adenosine deaminase at 37° C. A unit of adenosine deaminase is the amount of enzyme which hydrolyzes a standard substrate (e.g., adenosine) at the rate of 1.0 μmole/min at 25° C. and pH 7.5. […] Insert: Adenosine deaminase hydrolysis kinetics for 50 μM ddA and 2'-F-dd-ara-A. The hydrolysis curve for ddA has been extrapolated from kinetics obtained with 0.07 units/mL of adenosine deaminase under identical conditions.
A 50 μl aliquot of a 10 mg/ml suspension of adenosine deaminase (adenosine aminohydrolase, EC 3.5.4.4) from calf intestinal mucosa was centrifuged at 600×g for 3 min. The residue remaining after removal of the (NH4)2 SO4 supernatant was dissolved in 0.5 ml pH 7.4 tris(hydroxymethyl)-aminomethane (Tris) buffer to give an enzyme solution of 1 mg/ml (274 units/ml). […] A pH 7.4 buffer was prepared by adjusting 0.01M Tris to pH 7.4 with 0.5N HCl, The 1.0 HCl , HPLC-grade acetonitrile, monobasic potassium phosphate, sodium hydroxide and ultrapure Tris were all commercially available and were used without further purification.
Enzymatic Deamination of Adenosine Analogues. […] A 50 μL aliquot of substrate solution was diluted with 0.95 ml 0.01M Tris buffer in a 1.5-mL Eppendorf tube and equilibrated at 37° C. in a Dubnoff metabolic shaking incubator. Reaction was initiated by addition of 2.5 μL of adenosine deaminase solution (0.7 unit). At specified time intervals, a 50 μL aliquot of the reaction mixture was withdrawn and quenched by mixing with 0.45 mL cold 2 μM 2'-deoxycoformycin. This diluted sample was ultrafiltered to remove enzyme in a Centrifree Micropartition unit by centrifugation at 600×g at 4° C. in a high speed refrigerated centrifuge. The decrease in substrate concentration was monitored by HPLC analysis of the resultant ultrafiltrate (see below). The ability of 2'-deoxycoformycin to inhibit deamination under the above conditions was evaluated by adding 2 μL of 1.0 mM inhibitor to diluted substrate solutions at the time of equilibration. Reaction, sampling and analysis were carried out as above. […] Initial hydrolysis rates for each substrate concentration were measured through linear least-squares curve fitting of the concentration versus time data for reaction of the first 10% of substrate. KM and vmax values for each substrate were then determined from a graphical lineweaver-Burke plot of these initial rates (FIG. 1).
HPLC Analysis of Dideoxypurine Nucleosides.
Concentrations of dideoxynucleosides were measured by the HPLC analysis of 100 μL aliquots of ultrafiltered samples. A 4.6×250 mm 5-μm Ultrasphere-ODS column, protected by a Waters guard column packed with 37-50 μm Vydac 201SC, was eluted with 10-20% CH3 CN in 0.01M pH 7.0 phosphate buffer at a flow rate of 1.0 mL/min. Dideoxynucleosides and deamination products were detected at the appropriate wavelength of maximum absorption with a Gilson 116 variable wavelength detector. Peak identity was determined from coincidence of retention times with standards and by comparison of on-the-fly UV spectra obtained with a Perkin-Elmer LC-235 diode array detector. Peak areas and peak heights were measured simultaneously on a Spectra-Physics SP4200 computing integrator.

[5] = Octanol-water partition coefficient, microscale shake-flask; details: octanol/ph 7.0 buffer
Procedure: Measurement of Octanol-Water Partition Coefficients.
n-Octanol-water partition coefficients (P) were determined by a microscale shake-flask procedure, (Ford, H. et al Abstracts of Papers, 200th National Meeting of the American Chemical Society, Washington, D.C.; American Chemical Society: Washington, D.C., 1990; CARB 13) which was modification of an earlier method (Nahum, A. & Horvath, C. J. Chromatogr. 1980, 192, 315). A 20 μL aliquot of a 0.5 mg/mL DMSO solution of the dideoxynucleoside was dissolved in 1.0 mL of octanol-saturated, pH 7.0, 0.01M potassium phosphate buffer. This was mixed thoroughly with 1.0 ml of buffer-saturated n-octanol in a 2-mL Mixxor apparatus at 24°-26° C. and then allowed to stand for 15 min. The phases were separated, centrifuged at 600×g for 5 min, and the relative concentration of sample in each phase determined by HPLC analysis of a 50 μl aliquot. The partition coefficient was calculated by dividing the absolute area of the appropriate integrated peak from the octanol phase by that of the buffer phase (Table I).
Octanol/pH 7.0 buffer partition coefficients were determined using a newly developed microscale method. […] The addition of a methyl group normally increases the log P value of a compound by about 0.5.

[6] = test system: human immunodeficiency virus (HIV); details: background statement; cited from earlier work
[7] = in vivo; cited from earlier work

In the case of Nc1ncnc2c1ncn2[C@@H]1O[C@H](CO)C[C@@H]1F [Compound 1a, 2', 3'-dideoxy-2'-fluoroarabinosyladenine, reference compound], the “anti-HIV activity with supplementary ADA (in words)” value ([1]; ADA (0.7 U/mL) added) is reported as “did not change its activity”, the “anti-HIV activity in the presence of dCF (in words)” value ([1]; dCF added) is reported as “no important changes in the protection” and the “toxicity in the presence of dCF (in words)” value [2] is reported as “appeared to be potentiated”. For the same molecule, the “% Toxicity” value ([2]; human, 11520 min) was 11%, the “hydrolysis by ADA, times slower than ddA” value [3] was “ca. 10 times slower” and the half-life at 50 µM [4] was 1.33 min. For the same molecule, the half-life at 50 µM ([4]; t1/2 of hydrolysis by adenosine deaminase) was 1.33 min, the vmax ([4]; pH 7.4 and 37° C.) was 2.3 × 10^-1 μmol/min/U and the “hydrolysis by ADA, times slower than ddA” value ([4]; vs ddA, 50 μM substrate) was 17 times slower.

In the case of O=c1[nH]cnc2c1ncn2[C@@H]1O[C@H](CO)C[C@@H]1F [Compound 1b, 2', 3'-dideoxy-2'-fluoroarabinosylhypoxanthine, reference compound], the logD ([5]; pH 7) is given as -1.21 ± 0.02, the “in vitro activity against HIV (in words)” value [6] is given as “known active inosine analogue” and the “deamination product / product formation (in words)” value ([4]; 0.7 U/mL ADA, 37° C.) is given as “the rate of formation of 1b corresponded to the rate of disappearance of 1f”.

In the case of Nc1ccn([C@H]2CC[C@@H](CO)O2)c(=O)n1 [ddC, dideoxycytidine, reference compound], the logD ([5]; pH 7, Log P) is listed as -1.33 ± 0.01 and the “CNS entry (in words)” value [7] is listed as “failure of ddC to achieve significant CNS levels”.
